Results as given in ChEMBL document CHEMBL1201862, “PubChem BioAssay data set” (2004).
Each block holds one compound with its values, some of them ahead of it. Calls of active or inactive are those of the source.

Experiments:
[1] = target: T1, Rac GTPase-activating protein 1 (Homo sapiens, UniProt Q9H0H5); test: blockers of MgcRacGAP-driven Rac1 GTP hydrolysis – biochemical, ADP Hunter fluorescence, primary and confirmatory, confirmation (AID 624330); assay type: functional
T1 sequence (Q9H0H5 whole entry): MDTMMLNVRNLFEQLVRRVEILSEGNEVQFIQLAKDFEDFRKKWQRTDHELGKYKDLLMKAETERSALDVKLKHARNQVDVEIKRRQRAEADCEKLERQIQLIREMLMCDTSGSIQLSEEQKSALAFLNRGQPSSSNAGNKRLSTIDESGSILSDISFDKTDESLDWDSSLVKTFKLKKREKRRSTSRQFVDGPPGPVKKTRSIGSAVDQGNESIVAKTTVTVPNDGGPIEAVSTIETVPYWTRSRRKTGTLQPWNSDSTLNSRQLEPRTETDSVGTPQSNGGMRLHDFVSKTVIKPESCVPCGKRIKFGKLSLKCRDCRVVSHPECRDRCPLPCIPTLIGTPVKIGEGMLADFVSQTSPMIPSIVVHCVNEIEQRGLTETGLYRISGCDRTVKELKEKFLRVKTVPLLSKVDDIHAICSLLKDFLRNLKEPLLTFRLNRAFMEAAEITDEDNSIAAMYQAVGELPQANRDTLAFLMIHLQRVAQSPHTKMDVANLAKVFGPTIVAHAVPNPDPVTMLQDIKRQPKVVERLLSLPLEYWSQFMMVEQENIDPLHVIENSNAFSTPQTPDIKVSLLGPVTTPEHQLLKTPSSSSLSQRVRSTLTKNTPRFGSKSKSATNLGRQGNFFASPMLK

[2] = target: T2, Tyrosyl-DNA phosphodiesterase 2 (Homo sapiens, UniProt O95551); test: potency against TDP2 phosphodiesterase activity – biochemical, epi absorbance, IC50, dose response (AID 743297)
T2 sequence (O95551 whole entry): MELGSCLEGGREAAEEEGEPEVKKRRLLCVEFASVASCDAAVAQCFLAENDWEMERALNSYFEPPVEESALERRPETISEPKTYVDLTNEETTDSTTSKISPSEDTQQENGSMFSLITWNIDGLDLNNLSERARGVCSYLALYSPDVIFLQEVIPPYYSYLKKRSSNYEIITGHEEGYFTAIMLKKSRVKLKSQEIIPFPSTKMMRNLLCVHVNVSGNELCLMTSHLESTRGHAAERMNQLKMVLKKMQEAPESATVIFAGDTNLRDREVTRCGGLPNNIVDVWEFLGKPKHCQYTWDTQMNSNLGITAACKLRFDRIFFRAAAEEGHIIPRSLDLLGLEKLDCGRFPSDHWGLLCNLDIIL

[3] = viability loss in HeLa cells – cytotoxicity control for MgcRacGAP inhibitor project, dose response (AID 624300); assay type: functional
[4] = target: T3, Mitochondrial peptide methionine sulfoxide reductase (Bos taurus, UniProt P54149); test: Absorbance-based biochemical high throughput dose response assay for activators of Methionine sulfoxide reductase A (MsrA).; assay type: functional
T3 sequence (P54149 whole entry): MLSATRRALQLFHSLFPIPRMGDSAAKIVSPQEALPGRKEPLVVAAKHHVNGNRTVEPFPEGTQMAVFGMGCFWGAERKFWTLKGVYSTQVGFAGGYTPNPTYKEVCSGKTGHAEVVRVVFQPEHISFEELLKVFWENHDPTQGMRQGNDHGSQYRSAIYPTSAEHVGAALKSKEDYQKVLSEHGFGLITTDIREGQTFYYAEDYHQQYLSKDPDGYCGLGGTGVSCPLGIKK

[5] = target: NAD-dependent protein deacylase sirtuin-5, mitochondrial (Homo sapiens, UniProt Q9NXA8); test: sirtuin-5 deacylation blockers, concentration series – biochemical, fluorescence imaging, cherry-pick, set 5, dose response (AID 720591);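 further: desuccinylation of succinyl peptide AMC substrate read as fluorescence after trypsin release; potency of inhibitors that lower fluorescence and may act on trypsin instead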
NAD-dependent protein deacylase sirtuin-5, mitochondrial, sequence (Q9NXA8 whole entry): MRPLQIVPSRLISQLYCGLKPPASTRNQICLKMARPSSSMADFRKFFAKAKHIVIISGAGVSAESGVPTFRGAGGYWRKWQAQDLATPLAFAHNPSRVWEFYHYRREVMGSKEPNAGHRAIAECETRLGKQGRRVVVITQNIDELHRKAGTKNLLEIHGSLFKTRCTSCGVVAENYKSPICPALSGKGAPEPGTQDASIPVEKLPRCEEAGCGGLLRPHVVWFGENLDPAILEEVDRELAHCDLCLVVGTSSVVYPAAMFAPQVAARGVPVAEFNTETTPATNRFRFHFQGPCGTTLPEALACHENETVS

[6] = loss of viability in HepG2 cells – cell-based, CellTiter-Glo, cherry-picked, cytotoxicity control for Shn3 inhibitor project, dose response (AID 624134); assay type: functional
[7] = reduction of Shn3 3'UTR-driven luciferase in osteoblasts – cell-based, Clone20 osteoblasts, firefly luciferase, cherry-picked, dose response (AID 624132); assay type: functional;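 further: firefly luciferase luminescence from reporter carrying the Shn3 3'UTR in osteoblasts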
[8] = target: Photoreceptor-specific nuclear receptor (Homo sapiens, UniProt Q9Y5X4); assay type: functional, cell-based;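 further: CHO-S cells with Gal4-NCOR and VP16-NR2E3 two-hybrid luciferase reporter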
Photoreceptor-specific nuclear receptor, sequence (Q9Y5X4 whole entry, the tested form may be a part): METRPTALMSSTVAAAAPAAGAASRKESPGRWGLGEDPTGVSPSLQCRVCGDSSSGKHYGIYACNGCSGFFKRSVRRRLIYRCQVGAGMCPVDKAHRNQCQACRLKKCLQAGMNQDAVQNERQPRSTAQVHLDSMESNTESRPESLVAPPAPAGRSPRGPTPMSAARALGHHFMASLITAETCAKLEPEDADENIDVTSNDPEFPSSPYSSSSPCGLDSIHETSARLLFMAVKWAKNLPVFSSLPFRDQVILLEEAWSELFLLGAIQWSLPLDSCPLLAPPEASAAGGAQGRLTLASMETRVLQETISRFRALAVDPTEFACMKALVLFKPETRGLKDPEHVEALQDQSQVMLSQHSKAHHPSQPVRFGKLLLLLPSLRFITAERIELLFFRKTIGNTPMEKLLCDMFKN

[9] = non-specific 3'UTR reporter inhibition in Clone20-Shn3RL – cell-based, Renilla luciferase, cherry-picked, counter-screen for Shn3 inhibitor project, dose response (AID 624133); assay type: functional
[10] = Counterscreen for activators of the function of SWI/SNF related, matrix associated, actin dependent regulator of chromatin, subfamily a, member 2 (SMARCA2, BRM): Luminescence-based cell-based high throughput dose response assay to identify non-selective compounds using the VP16 reporter assay.; assay type: functional
[11] = target: SWI/SNF-related matrix-associated actin-dependent regulator of chromatin subfamily A member 2 (Homo sapiens, UniProt P51531); test: Luminescence-based cell-based high throughput dose response assay to identify activators of the function of SWI/SNF related, matrix associated, actin dependent regulator of chromatin, subfamily a, member 2 (SMARCA2, BRM).; assay type: functional
SWI/SNF-related matrix-associated actin-dependent regulator of chromatin subfamily A member 2, sequence (P51531 whole entry): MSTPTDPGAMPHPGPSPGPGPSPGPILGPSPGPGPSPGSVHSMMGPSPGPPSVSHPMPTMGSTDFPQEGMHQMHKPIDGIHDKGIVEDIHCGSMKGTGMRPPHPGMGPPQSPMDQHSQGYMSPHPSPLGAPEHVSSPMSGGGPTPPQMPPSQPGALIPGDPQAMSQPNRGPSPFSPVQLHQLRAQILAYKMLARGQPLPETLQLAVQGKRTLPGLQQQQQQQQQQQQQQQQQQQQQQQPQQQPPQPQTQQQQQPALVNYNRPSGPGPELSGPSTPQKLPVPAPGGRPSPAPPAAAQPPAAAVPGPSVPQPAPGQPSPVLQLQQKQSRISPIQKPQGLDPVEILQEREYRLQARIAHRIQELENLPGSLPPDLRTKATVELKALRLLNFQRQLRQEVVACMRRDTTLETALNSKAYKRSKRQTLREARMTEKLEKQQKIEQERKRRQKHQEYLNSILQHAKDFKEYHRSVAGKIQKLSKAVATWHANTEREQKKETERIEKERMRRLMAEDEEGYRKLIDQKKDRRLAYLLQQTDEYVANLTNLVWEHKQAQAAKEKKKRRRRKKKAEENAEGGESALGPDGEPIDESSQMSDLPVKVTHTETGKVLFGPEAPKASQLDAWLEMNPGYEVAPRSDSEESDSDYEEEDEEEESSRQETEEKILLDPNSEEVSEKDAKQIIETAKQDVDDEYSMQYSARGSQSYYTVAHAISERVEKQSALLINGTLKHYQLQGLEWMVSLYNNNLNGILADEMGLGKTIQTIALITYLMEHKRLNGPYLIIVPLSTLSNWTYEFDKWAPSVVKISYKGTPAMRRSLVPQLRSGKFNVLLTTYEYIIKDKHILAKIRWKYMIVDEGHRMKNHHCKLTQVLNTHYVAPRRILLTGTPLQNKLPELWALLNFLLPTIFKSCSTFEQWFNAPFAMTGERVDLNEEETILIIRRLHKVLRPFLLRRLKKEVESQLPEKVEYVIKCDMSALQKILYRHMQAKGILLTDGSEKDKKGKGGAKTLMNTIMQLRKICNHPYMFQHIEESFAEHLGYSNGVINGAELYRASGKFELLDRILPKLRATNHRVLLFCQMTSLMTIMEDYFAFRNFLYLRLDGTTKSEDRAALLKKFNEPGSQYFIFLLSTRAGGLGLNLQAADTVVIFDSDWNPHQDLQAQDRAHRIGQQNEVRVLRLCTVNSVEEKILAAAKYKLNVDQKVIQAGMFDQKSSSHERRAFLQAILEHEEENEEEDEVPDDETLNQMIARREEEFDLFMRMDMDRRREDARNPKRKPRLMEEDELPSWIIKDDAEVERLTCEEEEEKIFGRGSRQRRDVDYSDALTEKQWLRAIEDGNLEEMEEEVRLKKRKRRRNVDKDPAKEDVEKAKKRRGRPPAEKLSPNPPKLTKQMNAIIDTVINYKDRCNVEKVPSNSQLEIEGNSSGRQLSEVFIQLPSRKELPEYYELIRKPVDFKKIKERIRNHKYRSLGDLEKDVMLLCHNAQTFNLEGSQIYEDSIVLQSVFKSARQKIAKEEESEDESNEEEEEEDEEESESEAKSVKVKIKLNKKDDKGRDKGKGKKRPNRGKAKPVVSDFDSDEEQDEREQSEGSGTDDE

[12] = activation of miR-122 Renilla sensor silencing – cell-based, Huh7 psiCHECK-miR122, Renilla luciferase, cherry-picked, dose response (AID 651956); assay type: functional;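 further: huh7 hepatoma cells stably carrying a psiCHECK-2 miR-122 sensor plasmid; renilla luciferase signal reporting endogenous miR-122 activity after 48 h compound exposure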
[13] = general mammalian cell viability loss – activator set, cherry-pick, cytotoxicity control for miR-122 modulator project, dose response (AID 720690); assay type: functional, cell-based;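 further: HEK293T human cells scored for general mammalian cytotoxicity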
[14] = A2780 cell killing – plate reader, dry powder samples, cytotoxicity control, dose response (AID 743046); assay type: functional, cell-based
[15] = OVCAR8 cell viability loss – plate reader, dry powder samples, PAX8 project, dose response (AID 743197); assay type: functional, cell-based; conditions: OVCAR-8
[16] = target: Paired box protein Pax-8 (Homo sapiens, UniProt Q06710); test: PAX8 transcriptional activity inhibition in RMG-I – RMG-I cells, luciferase, cherry-pick, dose response (AID 687027); assay type: functional, cell-based;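 further: luciferase reporter driven by Pax8 target thyroperoxidase promoter measured by SteadyGlo luminescence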
Paired box protein Pax-8, sequence (Q06710 whole entry): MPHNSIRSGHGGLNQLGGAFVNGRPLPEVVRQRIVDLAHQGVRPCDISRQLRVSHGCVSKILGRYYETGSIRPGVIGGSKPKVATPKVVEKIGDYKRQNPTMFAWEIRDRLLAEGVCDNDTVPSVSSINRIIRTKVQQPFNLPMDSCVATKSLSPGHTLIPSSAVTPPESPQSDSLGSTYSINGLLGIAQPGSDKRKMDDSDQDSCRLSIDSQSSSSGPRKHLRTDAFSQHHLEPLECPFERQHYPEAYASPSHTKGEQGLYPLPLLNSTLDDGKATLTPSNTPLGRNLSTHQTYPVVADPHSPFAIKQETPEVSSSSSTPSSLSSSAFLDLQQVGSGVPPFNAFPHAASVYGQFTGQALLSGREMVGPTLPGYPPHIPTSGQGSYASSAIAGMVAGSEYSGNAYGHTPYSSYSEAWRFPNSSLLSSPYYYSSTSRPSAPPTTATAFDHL

[17] = OVCAR-3 cell viability loss – plate reader, dry powder samples, PAX8 inhibitor project, dose response (AID 743044); assay type: functional, cell-based
[18] = system: Cryptococcus neoformans; test: PubChem AID 686997; assay type: functional, organism-based
[19] = viability loss in CEM21 cells – cell-based, plate reader, dry powder, cytotoxicity control, dose response (AID 687026); assay type: functional

IC50 [1]: 323 µM (active)
IC50 [2]: > 128 µM (inactive)
EC50 [4]: > 104 µM (inactive)
SMILES: COc1cc(C=c2c3ccccc3n3c2cc(-c2ccccc2)[n+]3C)cc(OC)c1OC
CC50 [3]: 100 µM (active)

AC50 [5]: > 30 µM (inactive)
SMILES: COc1cc(C(=O)Nc2nnc(Cc3ccccc3)s2)cc(OC)c1OC

SMILES: C=C1C(=O)OC2CC(C)C3C=CC(=O)C3(C)C(O)C12 (stereo unspecified)
AC50 [6]: 5.16 µM (active)
AC50 [7]: < 0.26 µM (active)
IC50 [8]: 2.74 µM (active)
AC50 [9]: 2.68 µM (active)

SMILES: C=C1C(=O)OC2C1CCC(C)C1(O)C=CC(=O)C21C (stereo unspecified)
EC50 [10]: > 91.2 µM (inactive)
EC50 [11]: > 91.2 µM (inactive)

SMILES: CC(C)CC#Cc1ccc2c(c1)O[C@H](CN(C)C(=O)c1ccccc1)[C@H](C)CN([C@H](C)CO)S2(=O)=O
AC50 [12]: 27.2 µM (active)
AC50 [13]: 27.5 µM (active)

SMILES: COc1ccccc1C#Cc1ccc2c(c1)O[C@@H](CN(C)Cc1cccnc1)[C@@H](C)CN([C@H](C)CO)S2(=O)=O
AC50 [12]: 25.4 µM (active)
AC50 [13]: 9.3 µM (active)

SMILES: C[C@@H]1CN([C@H](C)CO)C(=O)c2cc(NS(=O)(=O)c3ccc(F)cc3)ccc2O[C@@H](C)CCCCO[C@H]1CN(C)S(=O)(=O)c1ccc(Cl)cc1
AC50 [14]: 2.97 µM (active)
AC50 [15]: > 70 µM (inactive)
AC50 [16]: 6.83 µM (active)
AC50 [17]: 32 µM (active)

SMILES: COC(=O)C1=C(C)N(Cc2ccccc2)C(=S)NC1c1ccc(Cl)cc1 (stereo unspecified)
AC50 [18]: 28.7 µM (active)

SMILES: Cc1ccc(-c2nnc3ccc4c(C(F)(F)F)cc(C(F)(F)F)nc4n23)cc1
AC50 [19]: > 70 µM (inactive)
